According to patent US20090048260A1, “Use of pyrrolopyrazine derivatives for the production of medicaments for the treatment of mucoviscidosis and diseases related to protein addressing errors in cells” (priority 2004, published 2009):
Several values for one entry are separate records, joined by “and”; a condition that tells them apart may be missing. Equal values may be shown once.

What was measured:
[1] = molecular target: T1, delF508-CFTR (Homo sapiens, UniProt P13569, DEL508-508); assay: iodide efflux, targeting (retargeting) of delF508-CFTR in CF15 cells; format: cell-based; details: for effect of known CFTR inhibitors on delF508 transport after treatment with aloisine A: CF15 cells treated with aloisine A
T1 construct: endogenous in cells; host or cells: CF15 (homozygous delF508)
T1 sequence (P13569 with tags, fused parts or gaps DEL508-508): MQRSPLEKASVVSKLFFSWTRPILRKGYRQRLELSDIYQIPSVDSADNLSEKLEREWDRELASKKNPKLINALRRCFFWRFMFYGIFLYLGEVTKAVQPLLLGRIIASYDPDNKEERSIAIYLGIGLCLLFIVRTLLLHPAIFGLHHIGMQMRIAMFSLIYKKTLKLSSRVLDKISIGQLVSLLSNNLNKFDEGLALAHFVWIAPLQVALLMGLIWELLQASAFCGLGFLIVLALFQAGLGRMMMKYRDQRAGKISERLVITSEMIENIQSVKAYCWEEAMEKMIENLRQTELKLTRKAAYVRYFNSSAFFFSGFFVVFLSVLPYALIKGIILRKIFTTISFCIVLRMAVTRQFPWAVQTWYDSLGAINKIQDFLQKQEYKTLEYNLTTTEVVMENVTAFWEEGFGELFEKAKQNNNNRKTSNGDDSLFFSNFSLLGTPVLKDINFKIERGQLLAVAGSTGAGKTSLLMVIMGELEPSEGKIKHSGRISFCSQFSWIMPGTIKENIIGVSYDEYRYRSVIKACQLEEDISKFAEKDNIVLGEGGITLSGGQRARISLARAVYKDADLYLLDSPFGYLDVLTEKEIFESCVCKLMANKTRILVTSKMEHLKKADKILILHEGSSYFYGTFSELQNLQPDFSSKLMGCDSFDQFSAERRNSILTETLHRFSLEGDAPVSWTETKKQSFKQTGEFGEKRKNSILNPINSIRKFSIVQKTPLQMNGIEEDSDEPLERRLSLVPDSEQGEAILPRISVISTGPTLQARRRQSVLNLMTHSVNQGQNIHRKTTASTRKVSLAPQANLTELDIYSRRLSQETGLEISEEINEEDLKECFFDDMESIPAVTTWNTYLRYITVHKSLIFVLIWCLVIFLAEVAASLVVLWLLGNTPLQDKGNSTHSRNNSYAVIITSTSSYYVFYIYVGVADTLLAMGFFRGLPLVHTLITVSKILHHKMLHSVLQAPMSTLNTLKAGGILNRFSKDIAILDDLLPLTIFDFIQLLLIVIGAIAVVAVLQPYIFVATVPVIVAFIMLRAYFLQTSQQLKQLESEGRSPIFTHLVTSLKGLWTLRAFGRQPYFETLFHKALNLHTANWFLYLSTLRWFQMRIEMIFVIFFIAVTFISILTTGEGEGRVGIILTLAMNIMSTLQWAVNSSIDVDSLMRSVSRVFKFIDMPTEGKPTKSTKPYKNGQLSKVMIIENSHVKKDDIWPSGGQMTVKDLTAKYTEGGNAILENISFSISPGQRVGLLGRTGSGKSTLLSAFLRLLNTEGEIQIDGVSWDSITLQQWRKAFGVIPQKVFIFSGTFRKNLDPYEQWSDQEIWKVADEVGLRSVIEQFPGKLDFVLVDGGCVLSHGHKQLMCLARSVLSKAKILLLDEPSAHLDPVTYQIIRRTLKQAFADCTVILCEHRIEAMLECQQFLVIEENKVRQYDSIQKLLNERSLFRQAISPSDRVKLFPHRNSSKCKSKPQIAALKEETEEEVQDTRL
Protocol: (§1) CF15 cells: CF15 cells are human epithelial cells of nasal origin which express the Δ508-CFTR gene.
Next, the quantity of radiotracer which leaves the cell is counted after the addition of various pharmacological agents.
The cells are cultured on 24-well plates in a suitable medium. […] The iodide equilibrates on either side of the cell membrane. A robot (MultiPROBE, Packard) carries out the following steps: the loading medium is rinsed with efflux medium in order to remove the extracellular radioactivity. The supernatant is collected every minute in hemolysis tubes and the medium is replaced with an equivalent volume (500 μl). The samples collected for the first 3 minutes are not supplemented with drug, they make it possible to obtain a stable baseline, characterizing the passive outflow of the I ions. The next 7 samples are obtained in the presence of the molecule to be tested. At the end of the experiment, the cells are lyzed by adding 500 μl of NaOH (0.1 N)/0.1% SDS (30 min), thus, the radioactivity which remained inside the cell may be determined. The radioactivity present in the hemolysis tubes is counted as counts per minute (cpm) using a gamma counter (Cobra II, Packard). The results in cpm are expressed in the form of rate of radioactive iodide outflow (R) according to the following formula: […]
This iodide flow is represented in the form of a curve. In order to quantify the outflow of iodide due to the administration of the molecule tested, the following relative flow is calculated which makes it possible to dispense with the basic flow: relative rate (min^−1)=Rpeak−Rbasal. […] The results are presented in the form of a mean+/−SEM. The student's statistical test is used to compare the effect of the drugs to the controls (the values corresponding to P<0.01 are considered as statistically significant).
The study of the targeting of the delF508-CFTR protein was carried out by combining pharmacological and cell imaging approaches, and biochemical and electrophysiological tests on […] human epithelial cells CF15 homozygous for the delF508 deletion.
For each experiment, the addition of a cocktail (10 μM forskolin+30 μM genistein) allows the activation of CFTR when it is attached to the membrane. Thus, an iodide efflux can be observed if the targeting of delF508 has been restored.

[2] = tested on: CHO-WT cells; assay: MTT cytotoxicity test; format: cell-based, Chinese Hamster; details: various concentrations
Protocol: The test of toxicity to MTT is a […] test which is based on capacity of mitochondrial dehydrogenases to metabolize MTT (yellow tetrazolium salt) to formazan (purple). The absorbance, which is proportional to the concentration of dye converted, can then be measured by spectrophotometry. […] 3 controls are prepared: 100% living cells: cells without agent; 0% living cells: cells left in the open air; blank: medium without cells. […] Next, they are incubated for 4 h with 100 μl of RPMI solution supplemented with MTT (0.5 mg/ml). The medium is then removed, the addition of 100 μl of DMSO makes it possible to solubilize the dye converted (formazan). The absorbance is measured by spectrophotometry at 570 nm (purple); 630 nm (background). In order to eliminate the background, the following calculation is carried out: DOreal=DO570nm−DO630nm. Next, the results are normalized with respect to the controls (100% and 0% of living cells) and are presented in the form of mean+/−SEM.

[3] = in vivo
[4] = molecular target: T2, wild-type CFTR (CFTR-WT) (Homo sapiens, UniProt P13569); assay: iodide efflux, activation of the CFTR chloride channel in CHO cells; format: cell-based
T2 construct: expressed in transfected cells; host or cells: CHO (Chinese Hamster Ovary) cells
T2 sequence (P13569 whole entry): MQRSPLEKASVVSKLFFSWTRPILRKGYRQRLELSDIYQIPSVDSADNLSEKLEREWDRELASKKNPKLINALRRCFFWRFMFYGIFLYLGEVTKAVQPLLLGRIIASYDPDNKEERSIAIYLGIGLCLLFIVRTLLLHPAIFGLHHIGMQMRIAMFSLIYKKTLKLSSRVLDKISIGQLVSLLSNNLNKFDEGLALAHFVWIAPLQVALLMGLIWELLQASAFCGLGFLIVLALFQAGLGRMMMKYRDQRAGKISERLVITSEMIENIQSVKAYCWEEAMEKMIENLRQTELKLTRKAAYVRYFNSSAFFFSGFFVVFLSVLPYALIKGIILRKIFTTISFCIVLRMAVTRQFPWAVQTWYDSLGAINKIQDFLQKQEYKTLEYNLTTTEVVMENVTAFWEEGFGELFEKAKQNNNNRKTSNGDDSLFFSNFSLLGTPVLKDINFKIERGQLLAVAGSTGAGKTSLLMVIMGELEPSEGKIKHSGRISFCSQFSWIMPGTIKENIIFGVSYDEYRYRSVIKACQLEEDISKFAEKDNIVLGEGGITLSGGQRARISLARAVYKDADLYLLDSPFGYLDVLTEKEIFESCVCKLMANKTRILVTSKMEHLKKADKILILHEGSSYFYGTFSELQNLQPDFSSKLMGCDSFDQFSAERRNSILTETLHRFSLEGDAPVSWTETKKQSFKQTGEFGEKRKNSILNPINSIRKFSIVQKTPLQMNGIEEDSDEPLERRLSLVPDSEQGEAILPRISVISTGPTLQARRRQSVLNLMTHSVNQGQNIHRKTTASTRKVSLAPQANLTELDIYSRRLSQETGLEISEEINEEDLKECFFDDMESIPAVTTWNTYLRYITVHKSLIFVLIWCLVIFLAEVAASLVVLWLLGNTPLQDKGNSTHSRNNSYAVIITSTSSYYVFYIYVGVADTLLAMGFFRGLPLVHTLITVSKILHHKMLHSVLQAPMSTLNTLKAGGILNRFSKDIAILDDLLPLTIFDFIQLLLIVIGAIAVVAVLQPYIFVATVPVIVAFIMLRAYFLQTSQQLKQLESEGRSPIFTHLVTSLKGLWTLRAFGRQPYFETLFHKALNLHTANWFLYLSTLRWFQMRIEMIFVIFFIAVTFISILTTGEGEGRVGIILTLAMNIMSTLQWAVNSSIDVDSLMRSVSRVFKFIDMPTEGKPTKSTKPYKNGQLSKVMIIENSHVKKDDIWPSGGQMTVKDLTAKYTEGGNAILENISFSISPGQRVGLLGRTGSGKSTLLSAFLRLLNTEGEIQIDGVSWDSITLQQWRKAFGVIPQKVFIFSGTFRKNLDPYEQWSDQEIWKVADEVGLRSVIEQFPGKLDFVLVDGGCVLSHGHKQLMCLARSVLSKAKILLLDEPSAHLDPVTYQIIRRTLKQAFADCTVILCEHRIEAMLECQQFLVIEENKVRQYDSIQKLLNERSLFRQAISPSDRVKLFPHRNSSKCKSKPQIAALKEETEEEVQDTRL
Protocol: CHO-WT cells: The CHO (Chinese Hamster Ovary) cells are fibroblasts which have been transfected with the wild-type CFTR (CFTR-WT) gene. These cells will therefore overexpress the CFTR protein.
the measurements of chloride ion transport in the cells was carried out with the aid of the radioactive iodide efflux technique (Becq et al., 1999; Dormer et al., 2001). The tracer (^125I) is incorporated into the intracellular medium. Next, the quantity of radiotracer which leaves the cell is counted after the addition of various pharmacological agents. […]
(§2) The cells are cultured on 24-well plates in a suitable medium. 2 rinses with efflux medium (NaCl: 136.6 mM, KCl: 5.4 mM, KH2PO4: 0.3 mM, NaH2PO4: 0.3 mM, NaHCO3: 4.2 mM, CaCl2: 1.3 mM, MgCl2: 0.5 mm, MgSO4: 0.4 mM, HEPES: 10 mM, D-glucose: 5.6 mM) are carried out in order to remove the dead cells which release the radioactivity anarchically. […] A robot (MultiPROBE, Packard) carries out the following steps: the loading medium is rinsed with efflux medium in order to remove the extracellular radioactivity. […] At the end of the experiment, the cells are lyzed by adding 500 μl of NaOH (0.1 N)/0.1% SDS (30 min), thus, the radioactivity which remained inside the cell may be determined. The radioactivity present in the hemolysis tubes is counted as counts per minute (cpm) using a gamma counter (Cobra II, Packard). […]

[5] = molecular target: T3, G551D-CFTR (Homo sapiens, UniProt P13569, G551D); assay: iodide efflux, activation of G551D-CFTR in CHO cells; format: cell-based; details: CHO cell
T3 construct: expressed in transfected cells; host or cells: CHO cells
T3 sequence (P13569 whole entry G551D): as the sequence (P13569 whole entry) above, with G551D counted along it
Protocol: (§3) the measurements of chloride ion transport in the cells was carried out with the aid of the radioactive iodide efflux technique (Becq et al., 1999; Dormer et al., 2001). The tracer (^125I) is incorporated into the intracellular medium. Next, the quantity of radiotracer which leaves the cell is counted after the addition of various pharmacological agents. Iodide is used as a tracer for the transport of chloride ions. ^125I further has the advantage of having a short life compared with that of other markers such as ^35Cl (respective ½ life: […] and 300000 years).
as §2

[6] = molecular target: T1, delF508-CFTR; assay: iodide efflux, activation of delF508 in CF15 cells after incubation at 27° C.; format: cell-based
Protocol: as §1, §3
as §2, with “determined.” for “determined. The radioactivity present in the hemolysis tubes is counted as counts per minute (cpm) using a gamma counter (Cobra II, Packard).”

[7] = molecular target: T1, delF508-CFTR; assay: immunolocalization of delF508-CFTR in CF15 cells (confocal imaging); format: cell-based; details: 100 μM aloisine A
Protocol: Immunolabeling makes it possible to reveal the cellular location of the CFTR protein using a primary anti-CFTR antibody (Ab), and then a secondary antibody anti-primary antibody labeled with the fluorophore Cy3.
The cells are inoculated beforehand on cover glass in appropriate culture medium. 3 washes with TBS (NaCl: 157 mM, Tris base: […], pH 7.4) of 5 min each are performed. The cells are then fixed by addition of TBS-paraformaldehyde (3%) for 20 min. After 3 washes with TBS (5 min), the cells are incubated with TBS-triton 0.1% (10 min) which allows the formation of holes in the cell membrane and then 3 washes with TBS are again carried out before bringing the cells into contact with TBS-BSA 0.5%-saponin 0.05% for 1 h. The cells are then incubated with the anti-C-terminal CFTR primary antibody (2 μg/ml) for 1 h. 3 washes with TBS-BSA-saponin of 5 min each are carried out before the incubation with the secondary antibody GAM-cy3 (1/400) for 1 h. Following 2 washes with TBS of 5 min, the nuclei are labeled by incubating with Topro3 (1/1000) for 5 min. Next, the cover glass may be mounted on the slide after 3 final washes with TBS of 5 min. […] In order to distinguish between the Cy3 and Topro3 labeling, the fluorescence color of Topro3 was changed to blue (color of the nuclei).

Compound: C[C@H]1CCC/C=C/[C@@H]2C[C@H](O)C[C@H]2[C@H](O)/C=C/C(=O)O1 [Brefeldin A]
- competition with aloisine A: effect on the aloisine A-induced retargeting of delF508-CFTR ([1]; iodide efflux, CF15 cells): inhibition

Compound: O=S(=O)(O)c1cc(N=C=S)ccc1C=Cc1ccc(N=C=S)cc1S(=O)(=O)O [DIDS]
- effect of known CFTR inhibitors on delF508 transport after treatment with aloisine A [1]: insensitive

Compound: COc1ccc(Cl)cc1C(=O)NCCc1ccc(S(=O)(=O)NC(=O)NC2CCCCC2)cc1 [glibenclamide]
- effect of known CFTR inhibitors on delF508 transport after treatment with aloisine A [1]: blocked

Compound: CCCCc1c(-c2ccc(O)cc2)[nH]c2nccnc12 [aloisine A]
- cell viability (MTT) ([2]; 2 h incubation): viable for all the concentrations
- cell viability (MTT) ([2]; 24 h incubation): viable for all the concentrations
- toxicity on animals [3]: very low toxicity
- EC50 [4]: 152 nM
- EC50 [5]: 1.5 nM
- EC50 [6]: 110 nM
- delF508-CFTR activity after treatment ([1]; CF15 cells, 100 μM, 2 h treatment, 37° C.): restored
- EC50 ([1]; CF15 cells, 2 h treatment, then 10 μM forskolin+30 μM genistein, read-out: EC50 of retargeting of delF508-CFTR (restored iodide efflux)): 50000 nM and 49000 nM
- localization of the delF508 protein [7]: redirect the delF508 protein to the membrane

Compound: O=C(O)c1ccccc1Nc1ccccc1 [DPC]
- effect of known CFTR inhibitors on delF508 transport after treatment with aloisine A [1]: blocked
